Laboratory results published in patent publication US9416163B2, “Synthetic oligopeptides designed from mite cysteine proteases and methods for the production of polyclonal IgY antibodies for the detection of intradomiciliary mites” (priority 2009, dated 2016).

System: Hi Line Brown chickens
Assay: Immunogenicity of synthetic peptide in immunized chickens (IgY production)
Assay type: in vivo, chicken
Settings: chickens immunized intramuscularly with peptide in Freund's adjuvant; IgY from egg yolk
Text: An experimental avian model was used in the experiments, represented by Hi Line Brown chickens, immunized with peptide 2, using complete Freund's adjuvant during the first immunization and incomplete Freund's adjuvant for the three subsequent immunizations, as described in the immunization protocol used. As a positive control, chickens were immunized with BSA, and as a negative control they were not immunized. Antibodies were extracted from egg yolk using an organic solvent and purified by thiophilic chromatography. Indirect ELISA tests were developed to measure the antibody titer and its specificity was determined by indirect ELISA. (25-26)
Experiments used an avian experimental model, represented by Hi Line Brown chickens, immunized with peptide 2, using complete Freund's adjuvant for the first immunization and incomplete Freund's adjuvant for the three subsequent immunizations described in the immunization protocol used. As a positive control, chickens were immunized with BSA, and as a negative control they were not immunized. Antibodies were extracted from egg yolk using an organic solvent and purified by thiophilic chromatography. Indirect ELISA tests were developed to measure the antibody titer and its specificity was determined by indirect ELISA. (25-26)
(§1) Experiments used an avian experimental model, represented by Hi Line Brown chickens, immunized with peptide 4, using complete Freund's adjuvant for the first immunization and incomplete Freund's adjuvant for the three subsequent immunizations described in the immunization protocol used. […] Indirect ELISA tests were developed to measure the antibody titer and its specificity was determined by indirect ELISA. […]
as §1, with “5,” for “4,”, “ELISA (FIG. 14)” for “ELISA.”

| Sequence | Immunogenicity: induction of IgY antibodies recognizing native mite proteins |
| --- | --- |
| IPANFDWRQKTHVNPIRNQG [Peptide P05] | induces the production of IgY-anti P05 antibody that recognizes epitopes B and/or T in native proteins of intradomiciliary Dp and Bt mites |
| PIRMQGGCGSCWAFSGV [Peptide P02] | induces the production of IgY anti P06 antibodies that recognize B and/or T epitopes in native proteins of intradomiciliary Df, Dp and Bt mite species |
| TNACSINGNAPAEIDLRQMR [Peptide P01] | induces the production of IgY anti P04 antibodies that recognize B and/or T epitopes in native proteins of intradomiciliary Df and Bt mite species |
